From patent publication US20230250106A1, “COMPOUNDS AND COMPOSITIONS FOR TREATING CONDITIONS ASSOCIATED WITH STING ACTIVITY” (IFM Due, Inc., priority 2020, published 2023) come the findings set out here.

The test deals with STING pathway. Nature of the test: STING reporter assay: luciferase reporter activity in THP1-Dual KO-IFNAR2 cells activated with 2'3'cGAMP. The test is classed as cell-based. The following applies: Homo sapiens, 2'3'cGAMP 15 μM, 24 h, read-out: hSTING EC50. As for the experimental part:
STING pathway activation by the compounds described herein was measured using THP1-Dual™ cells (KO-IFNAR2).
THP1-Dual™ KO-IFNAR2 Cells (obtained from invivogen) were maintained in RPMI, 10% FCS, 5 ml P/S, 2 mM L-glut, 10 mM Hepes, and 1 mM sodium pyruvate. Compounds were spotted in empty 384 well tissue culture plates (Greiner 781182) by Echo for a final concentration of 0.0017-100 μM. Cells were plated into the TC plates at 40 μL per well, 2×10E6 cells/mL. For activation with STING ligand, 2′3′cGAMP (MW 718.38, obtained from Invivogen), was prepared in Optimem media.
The following solutions were prepared for each 1×384 plate: • Solution A: 2 mL Optimem with one of the following stimuli: • 60 μL of 10 mM 2′3′cGAMP→150 μM stock • Solution B: 2 mL Optimem with 60 μL Lipofectamine 2000→Incubate 5 min at RT
2 mL of solution A and 2 ml Solution B was mixed and incubated for 20 min at room temperature (RT). 20 μL of transfection solution (A+B) was added on top of the plated cells, with a final 2′3′cGAMP concentration of 15 μM. The plates were then centrifuged immediately at 340 g for 1 minute, after which they were incubated at 37° C., 5% CO2,>98% humidity for 24 h. Luciferase reporter activity was then measured. EC50 values were calculated by using standard methods known in the art.
Luciferase reporter assay: 10 μL of supernatant from the assay was transferred to white 384-plate with flat bottom and squared wells. One pouch of QUANTI-Luc™ Plus was dissolved in 25 mL of water. 100 μL of QLC Stabilizer per 25 mL of QUANTI-Luc™ Plus solution was added. 50 μL of QUANTI-Luc™ Plus/QLC solution per well was then added. Luminescence was measured on a Platereader (e.g., Spectramax I3X (Molecular Devices GF3637001)).
Luciferase reporter activity was then measured. EC50 values were calculated by using standard methods known in the art.
A general note: Reporter assays use an easily measured gene product as a stand-in for the process of interest.

As usually defined, the EC50 is the concentration needed to bring the measured effect to its halfway point. Regarding `COCCOc1cc(C(=O)Nc2c[nH]c3cc(F)c(F)cc23)ccc1C(F)(F)F` [Compound 232, N-(5,6-difluoro-1H-indol-3-yl)-3-(2-methoxyethoxy)-4-(trifluoromethyl)benzamide], the EC50 fell in the range of 0.2 to 1 µM.
Then `CC(O)c1cc(C(=O)Nc2c[nH]c3cc(F)c(F)cc23)cc(C(F)(F)F)c1` (stereo not drawn) [Compound 275, N-(5,6-difluoro-1H-indol-3-yl)-3-(1-hydroxyethyl)-5-(trifluoromethyl)benzamide], with 1 to 5 µM.
Turning to `CC(C)Oc1ccc(C(=O)Nc2c[nH]c3cc(F)c(F)cc23)cc1C#N` [Compound 120, 3-cyano-N-(5,6-difluoro-1H-indol-3-yl)-4-(propan-2-yloxy)benzamide], the EC50 fell in the range of 0.2 to 1 µM.
As for `CCOc1c(F)ccc(C(=O)Nc2c[nH]c3cc(F)c(F)cc23)c1F` [Compound 198, N-(5,6-difluoro-1H-indol-3-yl)-3-ethoxy-2,4-difluorobenzamide], the half-maximal effective concentration (EC50) is 0.2 to 1 µM.
Then `COCCOc1cccc(C(=O)Nc2c[nH]c3cc(F)c(F)cc23)c1` [Compound 194, N-(5,6-difluoro-1H-indol-3-yl)-3-(2-methoxyethoxy)benzamide], with 0.2 to 1 µM; and `C[C@H](c1ccc(C(=O)Nc2c[nH]c3cc(F)c(F)cc23)cc1F)N1CC(F)(F)C1` (single isomer, unassigned) [Compound 245, (R or S)—N-(5,6-difluoro-1H-indol-3-yl)-4-(1-(3,3-difluoroazetidin-1-yl)-1l3-ethyl)-3-fluorobenzamide], with 0.2 to 1 µM; and `O=C(Nc1c[nH]c2cc(F)c(F)cc12)c1ccc(C2(O)CCC(F)(F)CC2)nc1` [Compound 250, 6-(4,4-difluoro-1-hydroxycyclohexyl)-N-(5,6-difluoro-1H-indol-3-yl)nicotinamide], with 1 to 5 µM.
Regarding `O=C(Nc1c[nH]c2cc(F)c(F)cc12)c1ccc(OCc2ccccc2)cc1` [Compound 136, 4-(benzyloxy)-N-(5,6-difluoro-1H-indol-3-yl)benzamide], the EC50 is 0.2 to 1 µM.
Then `COC1(C)CN(c2ncc(C(=O)Nc3c[nH]c4cc(F)c(F)cc34)cc2C)C1` [Compound 183, N-(5,6-difluoro-1H-indol-3-yl)-6-(3-methoxy-3-methylazetidin-1-yl)-5-methylnicotinamide], with 1 to 5 µM; and `N#Cc1ccc2c(NC(=O)c3ccc(OCCCC(F)(F)F)c(F)c3)c[nH]c2c1` [Compound 104, N-(6-cyano-1H-indol-3-yl)-3-fluoro-4-(4,4,4-trifluorobutoxy)benzamide], with 1 to 5 µM; and `CC(C)n1cc(-c2cc(F)c3[nH]cc(NC(=O)c4ccc(OCCCC(F)(F)F)cc4)c3c2)cn1` [Compound 204, N-(7-fluoro-5-(1-isopropyl-1H-pyrazol-4-yl)-1H-indol-3-yl)-4-(4,4,4-trifluorobutoxy)benzamide], with 0.2 to 1 µM.
Then `O=C(Nc1c[nH]c2cc(F)c(F)cc12)c1cnc(NCCC(F)(F)F)c(F)c1` [Compound 242, N-(5,6-difluoro-1H-indol-3-yl)-5-fluoro-6-((3,3,3-trifluoropropyl)amino)nicotinamide], with 0.2 to 1 µM; and `O=C(Nc1c[nH]c2cc(F)c(F)cc12)c1cnc(C2CC3(CC(OCC(F)(F)F)C3)C2)c(F)c1` (stereo not drawn) [Compound 222, N-(5,6-difluoro-1H-indol-3-yl)-5-fluoro-6-(6-(2,2,2-trifluoroethoxy)spiro[3.3]heptan-2-yl)nicotinamide], with 0.2 to 1 µM.
For `Cc1nc(-c2cccc(C(=O)Nc3c[nH]c4cc(F)c(F)cc34)c2)no1` [Compound 274, N-(5,6-difluoro-1H-indol-3-yl)-3-(5-methyl-1,2,4-oxadiazol-3-yl)benzamide] the value was 0.2 to 1 µM; for `CC(O)c1cc(C(=O)Nc2c[nH]c3cc(F)c(F)cc23)ccc1C(F)(F)F` (stereo not drawn) [Compound 276, N-(5,6-difluoro-1H-indol-3-yl)-3-(1-hydroxyethyl)-4-(trifluoromethyl)benzamide], 0.2 to 1 µM.
Take `O=C(Nc1c[nH]c2cc(F)c(F)cc12)c1ccc(C(F)(F)F)c(CCO)c1` [Compound 280, N-(5,6-difluoro-1H-indol-3-yl)-3-(2-hydroxyethyl)-4-(trifluoromethyl)benzamide]: the EC50 fell in the range of 0.2 to 1 µM.
Then `O=C(Nc1c[nH]c2cc(F)c(F)cc12)c1cccc(C2(O)CCC(F)(F)CC2)c1` [Compound 251, 3-(4,4-difluoro-1-hydroxycyclohexyl)-N-(5,6-difluoro-1H-indol-3-yl)benzamide], with 1 to 5 µM; and `O=C(Nc1c[nH]c2cc(F)c(F)cc12)c1cccc(NCCCC(F)(F)F)n1` [Compound 277, N-(5,6-difluoro-1H-indol-3-yl)-6-((4,4,4-trifluorobutyl)amino)picolinamide], with 5 to 100 µM.
Then `CCC1Cc2ccc(C(=O)Nc3c[nH]c4cc(F)c(F)cc34)cc2C1` (stereo not drawn) [Compound 261, N-(5,6-difluoro-1H-indol-3-yl)-2-ethyl-2,3-dihydro-1H-indene-5-carboxamide], with 0.2 to 1 µM; and `O=C(Nc1c[nH]c2cc(F)c(F)cc12)c1cccc(NCCCC(F)(F)F)c1` [Compound 169, N-(5,6-difluoro-1H-indol-3-yl)-3-((4,4,4-trifluorobutyl)amino)benzamide], with 0.2 to 1 µM.
`O=C(Nc1c[nH]c2cc(F)c(F)cc12)c1cnc(N2C[C@@H]3[C@@H](COCC(F)(F)F)[C@@H]3C2)c(F)c1` [Compound 223, N-(5,6-difluoro-1H-indol-3-yl)-5-fluoro-6-((1R,5S,6r)-6-((2,2,2-trifluoroethoxy)methyl)-3-azabicyclo[3.1.0]hexan-3-yl)nicotinamide]: the concentration giving a half-maximal response (EC50) lay within 0.04 to 0.2 µM.
Take `O=C(Nc1c[nH]c2cc(F)c(F)cc12)c1ccc(OC2COC2)cc1` [Compound 269, N-(5,6-difluoro-1H-indol-3-yl)-4-(oxetan-3-yloxy)benzamide]: the EC50 lay within 1 to 5 µM.
For `O=C(Nc1c[nH]c2cc(F)c(F)cc12)c1cnc(CN2CC(F)(F)C2)c(Cl)c1` [Compound 255, 5-chloro-N-(5,6-difluoro-1H-indol-3-yl)-6-((3,3-difluoroazetidin-1-yl)methyl)nicotinamide] the value was 1 to 5 µM.
For `N#Cc1cc(C(=O)Nc2c[nH]c3cc(F)c(F)cc23)ccc1N1CCC(F)(F)CC1` [Compound 188, 3-cyano-N-(5,6-difluoro-1H-indol-3-yl)-4-(4,4-difluoropiperidin-1-yl)benzamide] the value was 0.2 to 1 µM.
Regarding `CC(C)c1nc(-c2ccc(C(=O)Nc3c[nH]c4cc(F)c(F)cc34)cc2)no1` [Compound 267, N-(5,6-difluoro-1H-indol-3-yl)-4-(5-isopropyl-1,2,4-oxadiazol-3-yl)benzamide], the EC50 is 0.2 to 1 µM.
Then `O=C(Nc1c[nH]c2cc(F)c(F)cc12)c1ccc(Oc2cccnc2)cc1` [Compound 118, N-(5,6-difluoro-1H-indol-3-yl)-4-(pyridin-3-yloxy)benzamide], with 0.2 to 1 µM; and `C[C@@H](c1ccc(C(=O)Nc2c[nH]c3cc(F)c(F)cc23)cc1F)N1CC(F)(F)C1` (single isomer, unassigned) [Compound 244, (R or S)—N-(5,6-difluoro-1H-indol-3-yl)-4-(1-(3,3-difluoroazetidin-1-yl)-1l3-ethyl)-3-fluorobenzamide], with 0.2 to 1 µM.
For `O=C(Nc1c[nH]c2cc(F)c(F)cc12)c1ccc(C2(O)CCC(F)(F)CC2)c(F)c1` [Compound 258, 4-(4,4-difluoro-1-hydroxycyclohexyl)-N-(5,6-difluoro-1H-indol-3-yl)-3-fluorobenzamide] the value was 0.2 to 1 µM.
Then `Cc1cc(C(=O)Nc2c[nH]c3cc(F)c(F)cc23)ccc1OC1CC(F)(F)C1` [Compound 165, N-(5,6-difluoro-1H-indol-3-yl)-4-(3,3-difluorocyclobutoxy)-3-methylbenzamide], with 0.04 to 0.2 µM.
Take `Cc1ncc(C(=O)Nc2c[nH]c3cc(F)c(F)cc23)cc1N1CCC(F)(F)CC1` [Compound 256, N-(5,6-difluoro-1H-indol-3-yl)-5-(4,4-difluoropiperidin-1-yl)-6-methylnicotinamide]: the EC50 is 1 to 5 µM.
Then `O=C(Nc1c[nH]c2ccc(Cl)cc12)c1ccc(OCCCC(F)(F)F)c(F)c1` [Compound 153, N-(5-chloro-1H-indol-3-yl)-3-fluoro-4-(4,4,4-trifluorobutoxy)benzamide], with 0.2 to 1 µM; and `O=C(Nc1c[nH]c2cc(F)c(F)cc12)c1ccc(OCCOC(F)(F)F)c(F)c1` [Compound 262, N-(5,6-difluoro-1H-indol-3-yl)-3-fluoro-4-(2-(trifluoromethoxy)ethoxy)benzamide], with 0.2 to 1 µM.
Then `O=C(Nc1c[nH]c2cc(F)c(F)cc12)c1ccc(Cl)c(OCCCC(F)(F)F)c1` [Compound 170, 4-chloro-N-(5,6-difluoro-1H-indol-3-yl)-3-(4,4,4-trifluorobutoxy)benzamide], with 0.2 to 1 µM.
